Measured values taken from patent US6686350B1, “Cell adhesion inhibitors” (Biogen, Inc., priority 1996, dated 2004).

Biological target: IIb/IIIa (Homo sapiens, UniProt P05106+P08514)
Assay: IIb/IIIa inhibitory activity (receptor-ligand binding or platelet aggregation)
Details: qualitative statement
From the text: In a basic embodiment, therefore, one skilled in the art first identifies a compound having IIb/IIIa inhibitory activity. Compounds having IIb/IIIa inhibitory activity are well known to those skilled in the art, and are readily available, see, e.g., Table 2 and the references incorporated herein in the Background of the Invention. For purposes of this invention, one skilled in the art may use any of these known compounds. Alternatively, one may determine in assays known to those skilled in the art whether a particular compound has IIB/IIIa activity. If the assay is positive, then the scaffold will be useful in the present invention. Assays for IIb/IIIa inhibitory activity are well known in the art. […] (WO 093/00095, specifically incorporated herein by reference.) Additionally, the aforementioned binding to ligands can be assessed by one skilled in the art in a platelet aggregation assay.

Chain of IIb/IIIa (P08514 32-887 limits assumed): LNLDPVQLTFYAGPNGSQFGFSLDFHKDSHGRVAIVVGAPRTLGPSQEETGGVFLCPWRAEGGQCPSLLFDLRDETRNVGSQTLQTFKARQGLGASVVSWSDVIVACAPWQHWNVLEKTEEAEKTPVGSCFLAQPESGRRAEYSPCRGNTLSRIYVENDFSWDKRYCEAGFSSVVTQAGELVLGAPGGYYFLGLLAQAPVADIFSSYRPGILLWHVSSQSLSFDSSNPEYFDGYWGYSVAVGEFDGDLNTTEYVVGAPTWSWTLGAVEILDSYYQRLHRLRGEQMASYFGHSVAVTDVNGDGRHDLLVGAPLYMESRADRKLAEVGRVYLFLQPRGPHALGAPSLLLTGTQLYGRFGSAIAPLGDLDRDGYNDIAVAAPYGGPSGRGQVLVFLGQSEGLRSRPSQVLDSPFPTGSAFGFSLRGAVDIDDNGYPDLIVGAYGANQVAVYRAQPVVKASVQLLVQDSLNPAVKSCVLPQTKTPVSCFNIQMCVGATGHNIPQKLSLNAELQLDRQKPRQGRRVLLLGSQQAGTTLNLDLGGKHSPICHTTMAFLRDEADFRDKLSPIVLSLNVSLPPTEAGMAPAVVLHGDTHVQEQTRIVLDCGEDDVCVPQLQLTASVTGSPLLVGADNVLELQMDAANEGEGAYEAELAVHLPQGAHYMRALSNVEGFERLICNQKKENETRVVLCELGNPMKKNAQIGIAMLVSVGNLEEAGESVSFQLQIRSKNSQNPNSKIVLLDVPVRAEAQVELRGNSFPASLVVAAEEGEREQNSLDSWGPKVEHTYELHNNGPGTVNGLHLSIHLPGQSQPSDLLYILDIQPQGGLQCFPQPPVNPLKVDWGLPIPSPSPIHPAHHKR
Chain of IIb/IIIa (P08514 891-1039 limits assumed): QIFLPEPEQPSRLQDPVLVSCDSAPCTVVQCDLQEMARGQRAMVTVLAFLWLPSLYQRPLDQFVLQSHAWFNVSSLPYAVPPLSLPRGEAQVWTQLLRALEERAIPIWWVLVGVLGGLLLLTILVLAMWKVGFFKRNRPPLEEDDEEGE
Chain of IIb/IIIa (P05106 27-788): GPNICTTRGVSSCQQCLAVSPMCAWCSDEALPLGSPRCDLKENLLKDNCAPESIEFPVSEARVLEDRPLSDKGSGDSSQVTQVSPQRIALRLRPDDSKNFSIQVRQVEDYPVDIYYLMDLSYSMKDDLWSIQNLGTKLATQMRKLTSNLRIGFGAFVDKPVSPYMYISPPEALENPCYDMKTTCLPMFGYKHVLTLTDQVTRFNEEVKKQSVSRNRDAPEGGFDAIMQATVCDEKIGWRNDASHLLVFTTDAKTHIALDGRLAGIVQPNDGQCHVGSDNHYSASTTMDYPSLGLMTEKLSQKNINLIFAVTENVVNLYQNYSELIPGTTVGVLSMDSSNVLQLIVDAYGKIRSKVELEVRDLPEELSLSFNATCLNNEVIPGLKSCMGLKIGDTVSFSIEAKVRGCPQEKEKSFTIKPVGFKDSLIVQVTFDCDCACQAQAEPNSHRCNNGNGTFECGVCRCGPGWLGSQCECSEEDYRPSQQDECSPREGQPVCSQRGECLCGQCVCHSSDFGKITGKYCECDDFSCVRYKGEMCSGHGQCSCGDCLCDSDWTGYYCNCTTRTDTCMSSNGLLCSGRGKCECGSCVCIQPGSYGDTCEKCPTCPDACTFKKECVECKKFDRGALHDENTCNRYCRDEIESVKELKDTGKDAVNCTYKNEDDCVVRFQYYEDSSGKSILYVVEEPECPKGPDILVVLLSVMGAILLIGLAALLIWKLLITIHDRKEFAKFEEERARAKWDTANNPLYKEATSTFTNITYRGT

IIb/IIIa inhibitory activity: potent IIB/IIIa inhibitor
Structure (SMILES): CN(CC(=O)N1CCC(C2CCNCC2)CC1)C(=O)CN(CCC(=O)O)C(=O)c1ccccc1 [Compound B]
